What is called inhibition is the percentage by which the read-out fell short of the control.

The test concerns the target T1, CAMK2B (CaMKII beta) (Homo sapiens, UniProt Q13554).
T1 construct: purchased Thermo Fisher Scientific (Life Technologies) SelectScreen
In words: SelectScreen Z'LYTE. In kind it is biochemical. Summed up: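 NU5455 was profiled across the SelectScreen Broad panel of kinase activity and binding assays. Z'LYTE reactions such as CSF1R ran at apparent Km ATP, while the Adapta CAMK1 assay used ATP listed as 10. Values are given as percent.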

T1 sequence (Q13554 whole entry): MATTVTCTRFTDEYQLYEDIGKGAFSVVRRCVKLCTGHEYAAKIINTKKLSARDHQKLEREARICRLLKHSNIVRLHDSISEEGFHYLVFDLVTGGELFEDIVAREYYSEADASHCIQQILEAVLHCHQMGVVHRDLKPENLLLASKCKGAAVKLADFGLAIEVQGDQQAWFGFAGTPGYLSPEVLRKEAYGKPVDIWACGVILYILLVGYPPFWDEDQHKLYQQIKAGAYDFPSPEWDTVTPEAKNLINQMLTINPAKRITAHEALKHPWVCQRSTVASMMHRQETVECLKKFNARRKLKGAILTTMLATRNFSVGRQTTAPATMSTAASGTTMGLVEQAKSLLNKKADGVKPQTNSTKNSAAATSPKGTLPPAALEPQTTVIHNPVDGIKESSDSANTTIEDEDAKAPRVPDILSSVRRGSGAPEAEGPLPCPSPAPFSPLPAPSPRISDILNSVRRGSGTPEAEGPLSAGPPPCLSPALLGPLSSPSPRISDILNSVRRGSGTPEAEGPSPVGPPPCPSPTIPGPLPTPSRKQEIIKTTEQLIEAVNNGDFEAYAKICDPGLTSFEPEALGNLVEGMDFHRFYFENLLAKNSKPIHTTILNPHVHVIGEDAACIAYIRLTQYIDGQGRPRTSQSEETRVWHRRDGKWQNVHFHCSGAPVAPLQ

`CN(C(=O)CN1CCOCC1)c1ccc2sc3c(-c4cccc5c(=O)cc(N6CC7CCC(C6)O7)oc45)cccc3c2c1` [NU5455] showed an inhibition at 1 µM of 0.7%.

The values above are taken from publication PMC6934184, “Selective DNA-PKcs inhibition extends the therapeutic index of localized radiotherapy and chemotherapy” (The Journal of Clinical Investigation, 2019).
